Results: US7335644B2, “Anti-hypertensive molecules and process for preparation thereof” (Council of Scientific and Industrial Research, priority 2003, dated 2008)

System: arterial blood pressure of hypertensive Wistar rats
Settings: 1 mg/kg

C[C@H](CS)C(=O)N1CCC[C@H]1C(=O)O [captopril]
fall of blood pressure (reference inhibitor): 60 mm Hg | time during which still quite effective in blocking angiotensin-converting enzyme (reference inhibitor): ≥ 180 min | time for blood pressure to return to baseline (reference inhibitor (not shown)): 240 min
